This is an account of results in ChEMBL document CHEMBL1144991, “Autoradiographic visualization of corticotropin releasing hormone type 1 receptors with a nonpeptide ligand: synthesis of [(76)Br]MJL-1-109-2” (J Med Chem, 2003).

The target of this assay is T1, Corticotropin-releasing factor receptor 1 (Rattus norvegicus, UniProt P35353).
T1 sequence (P35353 whole entry): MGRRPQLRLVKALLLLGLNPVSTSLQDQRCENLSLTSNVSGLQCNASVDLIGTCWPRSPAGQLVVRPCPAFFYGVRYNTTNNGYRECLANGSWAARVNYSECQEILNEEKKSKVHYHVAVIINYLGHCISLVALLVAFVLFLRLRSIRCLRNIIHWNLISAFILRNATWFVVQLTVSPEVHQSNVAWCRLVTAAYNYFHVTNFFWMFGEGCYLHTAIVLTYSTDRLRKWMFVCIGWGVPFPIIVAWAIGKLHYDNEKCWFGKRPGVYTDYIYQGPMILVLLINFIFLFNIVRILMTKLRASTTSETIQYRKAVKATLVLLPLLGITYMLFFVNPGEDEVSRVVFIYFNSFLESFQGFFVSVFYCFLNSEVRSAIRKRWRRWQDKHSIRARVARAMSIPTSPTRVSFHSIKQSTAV
In words: Affinity for the Corticotropin releasing factor receptor 1 (CRHR1) was determined in rat brain. The class given is tissue-based.

Consider `COCCN(CCOC)c1nc(C)nc2c(-c3ccc(Br)cc3Cl)c(C)nn12`, for which the Ki was 1.9 nM. This counts as single-digit nanomolar.
For `CCCCN(CC)c1nc(C)nc2c1c(C)c(C)n2-c1c(C)cc(C)cc1C` [ANTALARMIN] the value was 1 nM.

Usually Ki stands for the equilibrium dissociation constant of an inhibitor or competing ligand from its target. Lower therefore signals a stronger hold on the target.
